Experimental data as given in publication PMC9414551 (Pharmaceuticals, 2022).
Where a name gives a salt, the structure may show the parent alone.

Tests used:
NR1-2C NMDAR [1] = biological target: T1, NR1-2C NMDAR (Homo sapiens, UniProt Q05586+Q14957); experiment: Whole-cell automated patch-clamp (QPatch) in 1 mM Mg2+; type: cell-based; parameters: host or cells: CHO (CHO-hN1-h2C), tetracycline-induced expression; conditions: 1 mM Mg2+
Description: (§1) Data were obtained in automated patch-clamp platform. […] Statistical results of one-way analysis of variance (ANOVA) followed by Tukey’s multiple comparisons test also reported p < 0.05 (*), p < 0.01 (**), p < 0.001 (***), and p < 0.0001 (****). Glu is glutamate.
(§2) For QPatch experiments, cells were grown in T-flasks first at 37 °C, 5% CO2 for 3 to 4 h, then at 30 °C, 5% CO2 for 18 to 24 h in DMEM/F12 medium with added 500 μM ketamine and 10 μg/mL tetracycline (except for NR1-2B-CHO cells) without additional antibiotics. Cells were manually detached from the culture dish and automatically dispensed in QPatch wells with extracellular solution in the presence of 1 mM Mg^2+ and 500 μM ketamine.
(§3) Holding potential was −80 mV, and voltage protocol included a depolarizing 2-s step pulse to +60 mV to check the quality of the seal and cell NMDAR expression level, followed by a 2-s ramp-up to holding potential.

NR1-2D NMDAR [2] = biological target: T2, NR1-2D NMDAR (Homo sapiens, UniProt O15399+Q05586); experiment: Whole-cell manual patch-clamp REL-1017 CRC in 1 mM MgCl2; conditions: 1 mM MgCl2, 1 μM L-glutamate, −60 mV
NR1-2B NMDAR = NR1-2B NMDAR (Homo sapiens, UniProt Q05586+Q13224); experiment: Whole-cell automated patch-clamp (QPatch) in 1 mM Mg2+; type: cell-based; parameters: host or cells: CHO (CHO-hNR1-h2B), constitutive expression; conditions: 1 mM Mg2+
Description: as §1, §2, §3

NR1-2D NMDAR [3] = biological target: T2, NR1-2D NMDAR; experiment: as above; type: cell-based; parameters: host or cells: CHO (CHO-hN1-h2D), tetracycline-induced expression; conditions: 1 mM Mg2+, −30 mV to −80 mV
Description: as §1, §2, §3

NR1-2A NMDAR [4] = biological target: T3, NR1-2A NMDAR (Homo sapiens, UniProt Q05586+Q12879); experiment: Whole-cell manual patch-clamp REL-1017 CRC in 1 mM MgCl2; conditions: 1 mM MgCl2, 1 μM L-glutamate, −60 mV
NR1-2C NMDAR [5] = biological target: T1, NR1-2C NMDAR; experiment: as above; conditions: 1 mM MgCl2, 1 μM L-glutamate, −60 mV
NR1-2A NMDAR [6] = biological target: T3, NR1-2A NMDAR; experiment: Whole-cell automated patch-clamp (QPatch) in 1 mM Mg2+; type: cell-based; parameters: host or cells: CHO (CHO-hNR1-h2A), tetracycline-induced expression; conditions: 1 mM Mg2+
Description: as §1, §2, §3

[7] = 10 μM REL-1017, 1 μM L-glutamate
[8] = 10 μM REL-1017, 10 μM L-glutamate

T3 sequence (Q12879 23-1464, other chains not shown): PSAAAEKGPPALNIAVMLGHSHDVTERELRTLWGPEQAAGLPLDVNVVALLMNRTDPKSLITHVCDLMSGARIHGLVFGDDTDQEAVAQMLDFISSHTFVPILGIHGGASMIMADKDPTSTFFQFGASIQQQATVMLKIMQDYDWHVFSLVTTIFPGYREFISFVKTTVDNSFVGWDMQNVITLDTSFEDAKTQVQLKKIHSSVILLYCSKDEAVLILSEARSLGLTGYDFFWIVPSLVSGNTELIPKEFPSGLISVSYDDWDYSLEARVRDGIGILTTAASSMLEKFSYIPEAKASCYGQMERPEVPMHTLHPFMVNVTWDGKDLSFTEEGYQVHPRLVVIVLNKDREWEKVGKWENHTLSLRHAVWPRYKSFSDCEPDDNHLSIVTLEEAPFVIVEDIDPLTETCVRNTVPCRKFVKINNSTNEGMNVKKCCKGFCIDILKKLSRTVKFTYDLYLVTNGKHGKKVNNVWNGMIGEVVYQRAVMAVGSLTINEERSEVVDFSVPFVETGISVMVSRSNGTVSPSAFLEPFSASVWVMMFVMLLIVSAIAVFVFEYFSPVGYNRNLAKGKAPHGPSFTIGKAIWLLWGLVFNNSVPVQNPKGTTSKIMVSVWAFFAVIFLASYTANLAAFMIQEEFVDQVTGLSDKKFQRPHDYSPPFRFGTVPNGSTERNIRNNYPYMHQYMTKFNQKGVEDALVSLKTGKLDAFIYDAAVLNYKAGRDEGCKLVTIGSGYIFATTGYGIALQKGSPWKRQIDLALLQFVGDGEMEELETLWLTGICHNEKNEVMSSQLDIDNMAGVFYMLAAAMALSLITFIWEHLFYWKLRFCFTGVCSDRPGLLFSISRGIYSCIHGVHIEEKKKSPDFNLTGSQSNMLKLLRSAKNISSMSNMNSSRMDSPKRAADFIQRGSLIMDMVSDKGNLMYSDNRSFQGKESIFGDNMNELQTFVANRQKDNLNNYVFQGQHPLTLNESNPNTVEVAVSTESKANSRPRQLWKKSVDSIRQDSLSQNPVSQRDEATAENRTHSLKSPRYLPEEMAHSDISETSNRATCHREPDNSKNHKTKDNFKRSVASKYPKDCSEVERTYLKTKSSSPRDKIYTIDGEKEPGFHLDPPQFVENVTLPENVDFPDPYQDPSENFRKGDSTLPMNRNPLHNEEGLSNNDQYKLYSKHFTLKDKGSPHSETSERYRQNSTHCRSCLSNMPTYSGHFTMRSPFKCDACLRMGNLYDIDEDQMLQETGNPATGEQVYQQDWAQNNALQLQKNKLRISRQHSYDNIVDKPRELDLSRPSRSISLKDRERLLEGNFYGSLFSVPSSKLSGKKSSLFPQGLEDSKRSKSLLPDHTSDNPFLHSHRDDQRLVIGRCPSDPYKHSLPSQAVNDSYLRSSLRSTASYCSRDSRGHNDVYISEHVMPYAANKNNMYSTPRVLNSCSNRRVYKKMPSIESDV
T2 sequence (O15399 28-1336, other chains not shown): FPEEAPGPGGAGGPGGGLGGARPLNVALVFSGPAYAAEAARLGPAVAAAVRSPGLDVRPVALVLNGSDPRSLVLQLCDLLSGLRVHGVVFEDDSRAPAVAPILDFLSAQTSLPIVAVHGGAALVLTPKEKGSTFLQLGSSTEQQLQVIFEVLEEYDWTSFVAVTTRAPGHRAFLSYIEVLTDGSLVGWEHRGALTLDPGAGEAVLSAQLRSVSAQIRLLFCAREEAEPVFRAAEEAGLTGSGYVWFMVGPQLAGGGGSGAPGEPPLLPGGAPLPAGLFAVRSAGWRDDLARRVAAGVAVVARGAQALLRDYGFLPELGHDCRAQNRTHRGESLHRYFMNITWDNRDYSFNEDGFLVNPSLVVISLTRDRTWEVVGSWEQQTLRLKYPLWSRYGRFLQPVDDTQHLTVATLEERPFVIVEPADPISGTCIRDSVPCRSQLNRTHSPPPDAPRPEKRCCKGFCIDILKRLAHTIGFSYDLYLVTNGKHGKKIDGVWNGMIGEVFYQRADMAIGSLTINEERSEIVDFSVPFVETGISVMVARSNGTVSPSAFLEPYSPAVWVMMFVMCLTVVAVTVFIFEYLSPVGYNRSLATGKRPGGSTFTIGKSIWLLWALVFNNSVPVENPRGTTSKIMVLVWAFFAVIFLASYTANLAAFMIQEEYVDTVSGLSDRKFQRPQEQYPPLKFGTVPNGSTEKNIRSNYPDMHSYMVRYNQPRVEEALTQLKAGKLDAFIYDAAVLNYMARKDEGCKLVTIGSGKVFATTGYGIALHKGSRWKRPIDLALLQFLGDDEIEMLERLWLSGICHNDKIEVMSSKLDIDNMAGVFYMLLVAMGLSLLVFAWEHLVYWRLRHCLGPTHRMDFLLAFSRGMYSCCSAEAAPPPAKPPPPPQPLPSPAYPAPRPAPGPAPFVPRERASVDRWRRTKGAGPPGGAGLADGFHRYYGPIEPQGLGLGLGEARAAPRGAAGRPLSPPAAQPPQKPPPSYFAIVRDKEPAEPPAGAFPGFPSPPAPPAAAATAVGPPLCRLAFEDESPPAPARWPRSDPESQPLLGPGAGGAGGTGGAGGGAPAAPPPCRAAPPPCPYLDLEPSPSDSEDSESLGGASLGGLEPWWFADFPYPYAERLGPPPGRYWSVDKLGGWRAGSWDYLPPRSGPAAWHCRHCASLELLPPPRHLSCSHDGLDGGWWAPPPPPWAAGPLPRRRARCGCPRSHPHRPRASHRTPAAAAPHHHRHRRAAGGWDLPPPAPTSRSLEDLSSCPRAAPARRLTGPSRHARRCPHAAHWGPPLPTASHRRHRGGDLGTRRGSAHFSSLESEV
T1 sequence (Q14957 20-1233, other chains not shown): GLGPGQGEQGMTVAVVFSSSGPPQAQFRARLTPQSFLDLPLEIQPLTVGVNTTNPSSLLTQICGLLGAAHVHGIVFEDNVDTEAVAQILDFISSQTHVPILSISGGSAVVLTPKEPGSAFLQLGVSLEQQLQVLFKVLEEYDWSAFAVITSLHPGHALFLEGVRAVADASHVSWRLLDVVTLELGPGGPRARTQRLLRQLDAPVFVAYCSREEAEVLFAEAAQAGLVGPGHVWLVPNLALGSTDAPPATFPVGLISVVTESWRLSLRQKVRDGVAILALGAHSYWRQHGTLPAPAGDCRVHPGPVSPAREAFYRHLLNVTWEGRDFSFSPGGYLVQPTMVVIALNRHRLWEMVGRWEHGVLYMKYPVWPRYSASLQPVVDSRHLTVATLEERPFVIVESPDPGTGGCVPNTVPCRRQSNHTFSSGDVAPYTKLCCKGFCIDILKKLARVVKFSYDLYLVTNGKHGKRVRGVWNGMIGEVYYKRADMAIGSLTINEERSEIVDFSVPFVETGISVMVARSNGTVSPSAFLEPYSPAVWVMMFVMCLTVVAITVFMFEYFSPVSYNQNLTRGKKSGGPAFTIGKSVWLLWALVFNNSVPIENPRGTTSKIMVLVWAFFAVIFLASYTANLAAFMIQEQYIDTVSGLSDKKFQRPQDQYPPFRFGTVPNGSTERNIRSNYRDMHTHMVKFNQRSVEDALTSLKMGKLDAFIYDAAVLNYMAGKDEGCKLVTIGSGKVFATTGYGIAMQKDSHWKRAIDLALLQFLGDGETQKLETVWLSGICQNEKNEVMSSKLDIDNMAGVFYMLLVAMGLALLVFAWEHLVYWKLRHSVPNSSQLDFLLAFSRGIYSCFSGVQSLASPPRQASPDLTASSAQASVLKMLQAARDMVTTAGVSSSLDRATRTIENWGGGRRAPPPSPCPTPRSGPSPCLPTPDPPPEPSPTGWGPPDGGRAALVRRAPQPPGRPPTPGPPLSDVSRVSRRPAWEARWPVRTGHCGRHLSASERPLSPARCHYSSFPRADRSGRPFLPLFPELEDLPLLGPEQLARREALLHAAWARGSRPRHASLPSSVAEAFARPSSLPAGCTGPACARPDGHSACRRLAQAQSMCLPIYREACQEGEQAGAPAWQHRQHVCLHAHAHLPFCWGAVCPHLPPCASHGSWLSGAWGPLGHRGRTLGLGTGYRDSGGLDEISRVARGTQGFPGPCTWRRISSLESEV

SMILES: CCC(=O)C(C[C@H](C)N(C)C)(c1ccccc1)c1ccccc1 [REL-1017, dextromethadone HCl]
- effect on L-glutamate-elicited current (NR1-2C NMDAR [1]; [7]): inactive
- effect on L-glutamate-elicited current (NR1-2C NMDAR [1]; [8]): inactive
- Hill Slope (NR1-2D NMDAR [2]): 1.42
- effect on L-glutamate-elicited current (NR1-2B NMDAR; [7]): inactive
- effect on L-glutamate-elicited current (NR1-2B NMDAR; [8]): significantly reduced the elicited current only at −30 mV, −40 mV, and −50 mV
- effect on L-glutamate-elicited current (NR1-2D NMDAR [3]; [7]): significantly reduced
- effect on L-glutamate-elicited current (NR1-2D NMDAR [3]; [8]): significantly reduced
- Hill Slope (NR1-2A NMDAR [4]): 1.06
- Hill Slope (NR1-2C NMDAR [5]): 1.49
- effect on L-glutamate-elicited current (NR1-2A NMDAR [6]; [7]): inactive
- effect on L-glutamate-elicited current (NR1-2A NMDAR [6]; 10 μM REL-1017, 10 μM L-glutamate, −30 mV to −80 mV): significantly reduced
